Laboratory results taken from patent publication US5691349A, “Quinclidine derivatives as squalene synthase inhibitors” (Zeneca Limited, priority 1992, dated 1997).
Structures can show the parent of a compound that is named as a salt.

Legend:
[1] = target: T1, squalene synthetase (Rattus norvegicus, UniProt Q02769); assay: Inhibition of Squalene Synthetase (prevention of squalene formation from tritiated farnesyl pyrophosphate, rat liver microsomal protein); format: biochemical; conditions: rat liver microsomes; 1-[3H]-farnesyl pyrophosphate 20 μM; 37° C.; 15 minutes; read-out: IC50 (concentration which results in a 50% inhibition of squalene production)
T1 construct: rat liver microsomal protein (20 μg); from tissue; host or cells: rat liver microsomes
T1 sequence (Q02769 1-416): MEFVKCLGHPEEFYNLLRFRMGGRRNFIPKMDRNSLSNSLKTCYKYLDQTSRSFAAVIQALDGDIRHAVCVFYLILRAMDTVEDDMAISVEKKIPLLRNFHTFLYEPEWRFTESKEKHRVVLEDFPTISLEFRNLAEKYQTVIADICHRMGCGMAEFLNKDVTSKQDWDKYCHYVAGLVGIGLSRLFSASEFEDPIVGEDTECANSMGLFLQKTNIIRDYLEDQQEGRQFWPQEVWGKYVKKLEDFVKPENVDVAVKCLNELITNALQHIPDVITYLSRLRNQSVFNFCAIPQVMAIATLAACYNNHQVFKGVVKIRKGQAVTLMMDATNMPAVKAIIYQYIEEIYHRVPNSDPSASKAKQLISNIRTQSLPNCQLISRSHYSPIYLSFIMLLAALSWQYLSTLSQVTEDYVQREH
Protocol: (a) Inhibition of Squalene Synthetase
In this test, the ability of a compound to prevent the formation of squalene from a radioactive substrate (tritiated farnesyl pyrophosphate) is assessed.
The test compound is incubated at a concentration of 25 micromolar in 200 μl of a buffered solution containing potassium phosphate (50 mM), MgCl2 (4.95 mM), KF (9.9 mM), NADPH (0.9 mM) and rat liver microsomal protein (20 μg). Rat liver microsomes are prepared by the method described in published European Patent Application No. 324,421 and stored in liquid nitrogen prior to assay. Assay vials are kept at 37° C. throughout the incubation.
The reaction is started with the addition of the substrate (1-[^3 H]-farnesyl pyrophosphate), final concentration 20 μM, and stopped after 15 minutes reaction time with the addition of 50 μl of 4% KOH. The reaction products are separated from unreacted substrate after application to a C-18 octadecyl 1 ccBond column (Analytichem Int product No. 617101). An aqueous fraction is eluted with 250 μl of 0.1M KOH. Squalene is then eluted with 1.0 ml 10% ethylacetate in hexane and radioactivity determined. The difference in radioactivity in the presence and absence of the test compound is used to determine the level of inhibition. […] The IC50 can then be determined from a plot of percentage inhibition against concentration of test compound.

[2] = tested on: de novo hepatic cholesterol synthesis; assay: Acute rat cholesterol synthesis assay (de novo hepatic cholesterol synthesis from 14C-acetate); format: in vivo; conditions: female rats, oral gavage, ip or iv dosing (route not given)
Protocol: (b) Acute rat cholesterol synthesis assay.
This is an acute in vivo test in the rat to measure de novo hepatic cholesterol synthesis from exogenously administered ^14 C-acetate.
Female rats (35-55 g) are housed in reverse lighting conditions (red light from 0200 h-1400 h) for a period of about 2 weeks prior to test. Animals are allowed free access to chow and drinking water throughout this period. At test, animals should weigh 125-150 g.
Test compounds may be administered by oral gavage, dissolved or suspended in 0.5% polysorbate, or by ip or iv dosing. Control animals receive vehicle alone. After 1 hour the rats are injected ip with 25 μCi [2-^14 C]-acetate (NEN DUPONT. specific activity, 45-60 mCi/mmol NEC-085H, or AMERSHAM specific activity, 50-60 mCi/mmol CFA 14) in a volume of 0.25 ml saline (100 μCi/ml). After a further hour, rats are terminally anaesthetised with halothane and a blood sample obtained from the abdominal vena cava.
1 ml of plasma is lyophilised and then saponified in 2 ml ethanolic KOH (1 part 33% KOH, 9 parts ethanol) at 75° C. for 2 hours. After addition of an equal quantity of water, non-saponifiable lipids are extracted with two 5 ml volumes of hexane. The hexane extracts are evaporated to dryness and the residues dissolved in ethanol to determine cholesterol specific radioactivity. EC50 values can be determined in the standard way.

| SMILES | IC50 [1] | ED50 [2] |
| --- | --- | --- |
| CCCCOc1ccc(CCC2CN3CCC2CC3)cc1 (centres unmarked) [Example 4, 3-[2-(4-butoxyphenyl)ethyl]-quinuclidine hydrochloride] | 33 nM | – |
| CCCCCc1ccc(C#CC2(O)CN3CCC2CC3)cc1 (centres unmarked) [Example 18, 3-[2-(4-pentylphenyl)ethynyl]-3-hydroxyquinuclidine] | – | ~21.5 mg/kg |
